Work on `COC(=O)C(CCSC)NC(=O)c1ccc(CS(=O)(=O)c2cccnc2)cc1-c1ccccc1` (stereo not drawn) yielded a melting point of 152 to 154 °C.
Work on `CCCC(=O)Oc1ccc2nc(S(N)(=O)=O)sc2c1` yielded a melting point of 122 to 123 °C.
`COc1cc(OC)nc(C2OC(=O)c3c(Cl)cccc32)n1` (stereo not drawn) showed a melting point of 148 to 149 °C.
Compound `COCc1cnc2c(NC(=O)c3c(Cl)cccc3Cl)cccc2c1N1CCN(C)C1=O` has a melting point of 199 to 201 °C.
Compound `O=C1SC(Cc2ccc(OCCON=Cc3cnc4ccccc4c3)cc2)C(=O)N1C(c1ccccc1)(c1ccccc1)c1ccccc1` (stereo not drawn) has a melting point of 127 to 130 °C.
Compound `Cc1ccc(C=CC#N)cc1C` has a melting point of 93.9 °C.
In the case of `O=C1Cn2ccnc2-c2ccccc2N1`, the melting point is reported as 265 to 266 °C.
`Cn1c(COc2ccc(CC3SC(=O)NC3=O)cc2)nc2ccc(Oc3cccc(NC(=O)Nc4cccc(C(F)(F)F)c4)c3)cc21` (stereo not drawn) gave a melting point of 162 to 163 °C.
`CC(C(=O)c1ccc(Cl)cc1)N1CCC(O)(Cc2ccccc2)CC1` (stereo not drawn) showed a melting point of 136 °C.
`Cc1cc(Oc2ccsc2C(F)(F)F)nc(-c2ccc(C(F)(F)F)cc2)c1` gave a melting point of 52.5 to 55.5 °C.
With `O=C(NNS(=O)(=O)c1ccccc1)c1ccc(F)cc1Cl` the melting point was 147 to 149 °C.
For `O=C(O)Cn1c(=O)[nH]c(=O)c2ccc(Cl)cc21`, the melting point was 306 °C.
`O=C(O)c1ccc2c(c1)Sc1ccccc1N=C2N1CCOCC1` showed a melting point of 267 to 269 °C.
In the case of `Cn1ncc(C(=O)O)c1C(=O)Nc1ccn2nc(-c3cccnc3)nc2c1`, the melting point is reported as greater than 250 °C.
Compound `CCCCNS(=O)(=O)CC(O)C(O)C(CC1CCCCC1)NC(=O)[C@H](CC(C)C)NC(=O)C(Cc1ccccc1)CS(=O)(=O)C(C)(C)C` (stereo partly drawn) has a melting point of 87 to 101 °C.
Work on `Oc1ccc2c(c1)CCC2n1cc[nH]c1=S` (stereo not drawn) yielded a melting point of 208 to 209 °C.
Compound `O=P(O)(O)C(c1ccc2cc(O)ccc2c1)P(O)(O)=S` (stereo not drawn) has a melting point of 210 to 211 °C.
In the case of `CS(=O)(=O)N1CCN(c2nc(N)nc(-c3cc(Cl)ccc3Cl)n2)CC1`, the melting point is reported as 184 to 186 °C.
With `Cn1c(=O)c(=O)[nH]c2ccc3c(c21)CCCN3` the melting point was greater than 285 °C.
Compound `O=C1NCCN1c1ccc(S(=O)(=O)Nc2ccc3c(c2)Cc2ccccc2-3)cc1` has a melting point of 164 to 166 °C.
With `COC(=O)Cc1ccc(CNC(=O)C2Cc3ccccc3N2S(=O)(=O)c2ccc(-c3ccc(F)cc3OC)cc2)cc1` (stereo not drawn) the melting point was 77 to 79 °C.
Compound `CCOC(=NC(=O)C1CC1)N1Cc2ccccc2-c2ccccc2C1` has a melting point of 97 to 99 °C.
Compound `CCOC(=O)C(Cc1ccc(OC)c(OC)c1)NC(=O)c1ccccc1` (stereo not drawn) has a melting point of 82 to 83 °C.
Work on `COCCn1nnnc1-c1cc(-c2cc(C(F)(F)F)ccc2F)c(O)cc1O` yielded a melting point of 90 to 94 °C.
For `Oc1nc2cc(Cl)c3nccnc3c2nc1O`, the melting point was greater than 300 °C.
Work on `CCOC(=O)c1cnccc1CCCOc1cccnc1Oc1cccc(Cl)c1` yielded a melting point of 140 to 164 °C.
Work on `CC(C)Nc1nccc(C#C[Si](C)(C)C)n1` yielded a melting point of 93 to 94 °C.
In the case of `CCOC(=O)c1c(Cn2cncn2)nc2cc(OC)c(OC)cc2c1-c1ccc(OC)c(OC)c1`, the melting point is reported as 176 to 177 °C.
Compound `Cc1cccc(-c2nc3ccccc3n2Cc2ccccc2Cl)c1` has a melting point of 117 °C.
In the case of `O=c1ncc(Cl)cn1CC=CCl`, the melting point is reported as 102 to 104 °C.
For `Cc1cccc(COc2ccc(-c3ccc(C(=O)NC(Cc4ccccc4)C(=O)O)cc3)cc2)c1` (stereo not drawn), the melting point was 204 °C.
In the case of `COc1ccc(N2CCN(c3c(C)c(C)c4c(c3C)C(O)(CCc3ccccc3)C(C)(C)O4)CC2)cc1` (stereo not drawn), the melting point is reported as 124 to 126 °C.
For `Cn1c(=O)n(Cc2ccccc2)c(=O)c2cc(C(=O)O)ccc21`, the melting point was 227 °C.
With `CCC(C#N)(CC)c1nsc2ccc(-n3c(=O)cc(C(F)(F)F)n(C)c3=O)cc12` the melting point was 76 to 78 °C.
`Cc1ccc(C2CCCN2S(=O)(=O)c2ccc(F)cc2)c(C)c1` (racemic) gave a melting point of 134 °C.
Work on `Cc1cccc2c(C#N)csc12` yielded a melting point of 82 to 84 °C.
Work on `N#CNC(=NCCCOc1ccccc1)Nc1cncc(Br)c1` yielded a melting point of 129 to 130 °C.
With `N#CC[C@H]1CCn2c(cc3ccccc32)C1` the melting point was 100 to 101 °C.
Work on `CN(C)C=Nc1c(Cl)cc(N=Cc2ccc3c(c2)OCO3)cc1Cl` yielded a melting point of 155 to 156 °C.
For `CC(=O)Cc1ccc(Oc2ccc(Cl)cc2)cc1`, the melting point was 50 to 52 °C.
`Cn1c(=O)c2c(ncn2CCCCC(=O)CBr)n(C)c1=O` showed a melting point of 106 to 109 °C.
With `C=CCN1CCC23c4c5ccc(O)c4OC2C(C)C(=NO)CC3(O)C1C5` (stereo not drawn) the melting point was 128 to 129 °C.
With `N#CCC(=O)Nc1ccccc1S` the melting point was 198 to 201 °C.
`Cc1nc(N)nc(N)c1N=Nc1ccc(I)cc1` showed a melting point of 243 to 244 °C.
`CCc1nc(/C=C\c2cn(-c3ccccc3)nc2OCc2ccc(OCc3nc(N4CCOCC4)sc3C)c(OC)c2)cs1` showed a melting point of 76 to 78 °C.
For `Cc1nc(-n2ccc(C(F)(F)F)cc2=O)sc1C(=O)NCc1cccnc1`, the melting point was 172 to 173 °C.
Work on `COc1ccc(C2(C#N)CCC(=O)C(C(N)=O)C2)cc1OCC1CC1` (stereo not drawn) yielded a melting point of 154 to 155 °C.
For `CN(c1cccc2cc(C3=NCC(CC(=O)O)S3)[nH]c12)S(=O)(=O)c1ccccn1` (stereo not drawn), the melting point was 231 to 233 °C.
Compound `Cc1cc2c(cc1C1=NNC(=O)CC1)NC(=O)CO2` has a melting point of 255 to 257 °C.
`O=C1N(Cc2ncccc2F)c2ccccc2C12COc1cc3c(cc12)OCCO3` (stereo not drawn) gave a melting point of 125 to 126 °C.
In the case of `CCCCN(CCCC)CCN=c1sc2ccccc2s1`, the melting point is reported as 122 to 123 °C.
For `N#Cc1ccc(-c2ccc(OC3SCC(O)C(O)C3O)c(F)n2)cn1` (stereo not drawn), the melting point was 158 to 162 °C.
In the case of `CCCCCC(C)C(C)c1cc(O)c2c(c1)OC(C)(C)C1=C2CN(CC(=O)NC(N)=O)CC1` (stereo not drawn), the melting point is reported as 131 to 133 °C.
With `COc1ccc(-c2nn(C(C)C)c3c(C(F)(F)F)cccc23)c(OC)c1` the melting point was 128 to 129 °C.
Work on `Cc1cc(C)c2cccc(OCc3c(Cl)ccc(S(=O)(=O)N4CCC[C@H]4C(=O)NCCNC(=O)COc4ccc(C=NN)cc4)c3Cl)c2n1` yielded a melting point of 156 to 160 °C.
`CC12CC(C#N)(CC1=O)C(C)(C)O2` (stereo not drawn) gave a melting point of 74 to 76 °C.
In the case of `CCCCCOc1cc2c(cc1OCc1cccc(C(=O)OC)c1)C(=O)CC2`, the melting point is reported as 110 to 111 °C.
For `COC(=O)/C=C/c1c(-c2ccc(F)cc2)c2ccccc2n1C(C)C`, the melting point was 155 to 157 °C.
With `[N-]=[N+]=Nc1ccc(Cl)cc1C(=O)c1ccccc1` the melting point was 81 to 83 °C.
Compound `O=c1[nH]cc(Cl)cc1Br` has a melting point of 170 to 173 °C.
Work on `Nc1c(Cl)c(F)nc(F)c1Cl` yielded a melting point of 110 °C.
With `CN1C(=O)C(NC(=O)c2cc3ccccc3[nH]2)C(=O)N(c2ccccc2)c2cc(Cl)ccc21` (stereo not drawn) the melting point was 280 °C.
`O=C1CCC(N2Cc3c(OCc4ccc(CN5CCOc6ccccc65)cc4)cccc3C2=O)C(=O)N1` (stereo not drawn) showed a melting point of 145 to 147 °C.
`O=C(O)Cc1ccc2c(c1)CC(NS(=O)(=O)c1ccc(Cl)cc1)C2` (stereo not drawn) gave a melting point of 154 to 155 °C.
Work on `CC[C@@H](O)[C@@H](CCCC(C)=O)OCc1ccccc1` yielded a melting point of 30 to 31 °C.
Compound `CCn1cc(C(=O)NCc2ccc(Cl)cc2)c(=O)c2ccsc21` has a melting point of 183 to 184 °C.
`Cc1ccc(Cn2ccc(CN3CCC(c4ccccc4)(c4ccccc4)CC3)n2)cc1C` showed a melting point of 139 to 140 °C.
Work on `CSCCC1OC2(CCCCC2)NC1=O` (stereo not drawn) yielded a melting point of 109 °C.
Compound `Cc1cccn2cc(C(C)C)c(S(=O)(=O)c3ccc(O)cc3)c12` has a melting point of 191 to 193 °C.
`CCCCc1ccc(-c2cc(Cl)c(C#N)cn2)cc1` showed a melting point of 107 °C.
`CCN(CC)CC(=O)OC1CC2(C)C(C(C)=O)CCC2C2CCC3CC(O)C(Br)CC3(C)C12` (stereo not drawn) showed a melting point of 149 to 150 °C.
For `Cc1cc(NC(=O)NN(c2ccccc2)c2cccc(C#N)c2)ccc1N1CCOCC1`, the melting point was 115 to 116 °C.
`Cc1nn(C)c(NC=O)c1C1=CCC(C)CC1` (stereo not drawn) showed a melting point of 97 to 99 °C.
`Cn1nc(CS(C)(=O)=O)nc1NCCCOc1ccc(CN2CCCCC2)cc1` showed a melting point of 131 to 134 °C.
`Cn1cc(C#N)c(Nc2ccccc2[N+](=O)[O-])n1` gave a melting point of 172 °C.
Work on `O=C1C=CC(OC(=O)c2ccc([N+](=O)[O-])cc2)(c2nc3ccccc3s2)C=C1` yielded a melting point of 138 °C.
`CCCCc1nc(C(=O)CC)c(C#N)[nH]1` gave a melting point of 84 to 85 °C.
In the case of `Cc1ccc(S(=O)(=O)N2CCN([C@H](C)[C@](O)(Cn3cncn3)c3ccc(F)cc3F)CC2)cc1`, the melting point is reported as 81 to 83 °C.
Work on `C[Si](C)(C)C#Cc1ccc(C=Cc2ccc(C#C[Si](C)(C)C)cc2)cc1` yielded a melting point of 207 to 208 °C.
Compound `CCS(=O)(=O)c1ccc(C(CC2CCCC2)C(=O)Nc2ccccn2)cc1` (stereo not drawn) has a melting point of 144 to 145 °C.
Work on `CN(CC(=O)[C@H](Cc1ccccc1)NC(=O)N1CCCCC1)C(=O)N1CCC[C@H]1C(=O)O` yielded a melting point of 69 to 72 °C.
With `CN1CCN(c2ccc(-c3cnn4c(N)c(-c5ccccc5Cl)cnc34)cc2)CC1` the melting point was 197 to 200 °C.
For `CN1C(=O)CC[C@]2(C)c3ccc(Sc4nc(-c5ccccc5)nc5ccccc45)cc3CC[C@@H]12`, the melting point was 185 to 193 °C.
Compound `CC(C)N1CC2(COc3ccc(N(C)C)cc3OC2)OC1=O` (stereo not drawn) has a melting point of 135 to 138 °C.
`COc1cc2c(c3c1OC(C)(C)C3)C(c1cccc(N3CCNC3=O)c1)=NC(C)(C)C2` showed a melting point of 225 to 227 °C.
With `Cc1cc(F)cc(Oc2ccc([C@@H]3CCCN4CCS(=O)(=O)N=C34)cc2)c1` the melting point was 158 to 159 °C.
Compound `CCC(C)(C)C1=CC(=CC(=O)O)C=C(C(C)(C)CC)C1=O` has a melting point of 109 to 110 °C.
`COc1ccnc(C(=O)c2[nH]c3cc(Cl)ccc3c2NC(=O)N(C)OC)c1` showed a melting point of 184 to 185 °C.
In the case of `CC(CCCc1ccccc1)c1cc(O)c2c3c(c(=O)oc2c1)CCC(=O)C3` (stereo not drawn), the melting point is reported as 163 to 164 °C.
In the case of `CC1(C)CCC(C)(C)c2cc(-c3cc(-c4ccc(C(=O)NO)cc4)ccc3-c3ccccc3)ccc21`, the melting point is reported as 105 to 108 °C.
In the case of `CC1=NOCC1(C)S(=O)(=O)n1nc(Cl)nc1-c1ccccc1` (stereo not drawn), the melting point is reported as 70 to 74 °C.
`O=C(O)CCC(=NO)c1ccc(-c2ccc(Br)cc2F)cc1` showed a melting point of 163 to 164 °C.
Compound `CCCCOc1nc(N)c2[nH]c(=O)n(CCNc3cccc(CC(=O)OC)c3)c2n1` has a melting point of 222 to 223 °C.
In the case of `[N-]=[N+]=C1C(=O)Nc2c1cccc2C(F)(F)F`, the melting point is reported as 173 to 175 °C.
`CCOC(=O)CCC(=O)c1ccc(Cl)cc1OCC(O)CNC(C)(C)C` (stereo not drawn) gave a melting point of 70 °C.
`COC(=O)c1cccc(C2C(C(=O)c3ccc(OC)cc3)=C(O)C(=O)N2c2nnc(C)s2)c1` (stereo not drawn) showed a melting point of 218 °C.
With `CC(=O)Nc1cnc(-c2ccc(CC(C)N3CC(c4cccc(Cl)c4)OC3=O)cc2)o1` (stereo not drawn) the melting point was 78 to 88 °C.
For `CCOC(=O)c1cc(C)n(-c2cccc(C)c2)c1-c1ccccc1`, the melting point was 92.5 to 94 °C.

Source: a melting point compilation (Tetko et al.; mined from patent text by program, amines drawn as free bases though some values may be those of a salt)
